Results reported in patent US20150105252A1, “SUBSTITUTED PYRAZOLES AS HERBICIDES” (E I DU PONT DE NEMOURS AND COMPANY, priority 2013, published 2015).

Columns and labels:
barnyardgrass [1] = experiment: Test A postemergence; assay type: in vivo, Echinochloa crus-galli
In short: (§1)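 Greenhouse test in loam soil/sand blend; compounds formulated in non-phytotoxic solvent with surfactant, applied as preemergence directed soil spray or postemergence to plants 2–10 cm tall at one- to two-leaf stage. Injury rated visually versus untreated controls after approximately 10 days on a 0 (no effect) to 100 (complete control) scale.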

pigweed = experiment: Test A postemergence; assay type: in vivo, Amaranthus retroflexus
In short: as §1

ryegrass, Italian = experiment: Test C preemergence; assay type: in vivo, Lolium multiflorum; conditions: for Ryegrass, Italian plant response rating: preemergence
In short: (§2)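 Greenhouse pot test: preemergence application onto freshly seeded loam/sand mix, postemergence application onto seedlings (1–4 leaves, 2–18 cm) in peat-vermiculite substrate. Responses scored visually 13 to 15 days later relative to controls, where 0 means no effect and 100 means complete control; a dash indicates no result.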

crabgrass, large [2] = experiment: Test C preemergence; assay type: in vivo, Digitaria sanguinalis; conditions: for Crabgrass, Large plant response rating: preemergence
In short: as §2

foxtail, giant = experiment: Test C preemergence; assay type: in vivo, Setaria faberii; conditions: for Foxtail, Giant plant response rating: preemergence
In short: as §2

johnsongrass = experiment: Test C preemergence; assay type: in vivo, Sorghum halepense; conditions: for Johnsongrass plant response rating: preemergence
In short: as §2

waterhemp = experiment: Test C preemergence; assay type: in vivo, Amaranthus rudis; conditions: for Waterhemp plant response rating: preemergence
In short: as §2

velvetleaf = experiment: Test C preemergence; assay type: in vivo, Abutilon theophrasti; conditions: for Velvetleaf plant response rating: preemergence
In short: as §2

crabgrass, large [3] = experiment: Test C postemergence; assay type: in vivo, Digitaria sanguinalis
In short: as §2

barnyardgrass [4] = experiment: Test C postemergence; assay type: in vivo, Echinochloa crus-galli
In short: as §2

kochia = experiment: Test C postemergence; assay type: in vivo, Kochia scoparia
In short: as §2

chickweed = experiment: Test C postemergence; assay type: in vivo, Stellaria media
In short: as §2

[5] = Postemergence, 500 g ai/ha, 0 to 100 scale (0 no effect, 100 complete control)
[6] = postemergence, 125 g ai/ha, about 10 days, visual rating on 0 to 100 scale (0 no effect, 100 complete control)
[7] = 31 g ai/ha, visual rating, scale 0 to 100 (0 no effect, 100 complete control), 13 to 15 days
[8] = 62 g ai/ha, scale 0 to 100 (0 no effect, 100 complete control), 13 to 15 days
[9] = 125 g ai/ha, scale 0 to 100, 0 is no effect, 100 is complete control
[10] = Postemergence, 31 g ai/ha, visually evaluated after 13 to 15 days
[11] = postemergence, 62 g ai/ha, scale 0 to 100
[12] = postemergence, 250 g ai/ha, scale 0 to 100 (0 no effect, 100 complete control)
[13] = postemergence, 125 g ai/ha, scale 0 to 100, 0 no effect, 100 complete control

CCc1cc(C(=O)NOC(C)C)nn1Cc1ccnc(OC(F)F)c1 [Compound 126]
Barnyardgrass plant response rating (barnyardgrass [1]; [5]): 100 | Barnyardgrass plant response rating (barnyardgrass [1]; [6]): 90 | Pigweed plant response rating (pigweed; [5]): 90 | Pigweed plant response rating (pigweed; [6]): 90 | Plant response rating (scale of 0 to 100), Ryegrass, Italian (ryegrass, Italian; Preemergence, 250 g ai/ha): 90 | Ryegrass, Italian plant response rating (ryegrass, Italian; [7]): 15 | Ryegrass, Italian plant response rating (ryegrass, Italian; [8]): 60 | Ryegrass, Italian plant response rating (ryegrass, Italian; [9]): 90 | Plant response rating (scale of 0 to 100), Crabgrass, Large (crabgrass, large [2]; Preemergence, 250 g ai/ha): 100 | Crabgrass, Large plant response rating (crabgrass, large [2]; [7]): 90 | Crabgrass, Large plant response rating (crabgrass, large [2]; [8]): 100 | Crabgrass, Large plant response rating (crabgrass, large [2]; [9]): 100 | Plant response rating (scale of 0 to 100), Foxtail, Giant (foxtail, giant; Preemergence, 250 g ai/ha): 100 | Foxtail, Giant plant response rating (foxtail, giant; [7]): 45 | Foxtail, Giant plant response rating (foxtail, giant; [8]): 85 | Foxtail, Giant plant response rating (foxtail, giant; [9]): 98 | Plant response rating (scale of 0 to 100), Johnsongrass (johnsongrass; Preemergence, 250 g ai/ha): 98 | Johnsongrass plant response rating (johnsongrass; [7]): 40 | Johnsongrass plant response rating (johnsongrass; [8]): 85 | Johnsongrass plant response rating (johnsongrass; [9]): 95 | Plant response rating (scale of 0 to 100), Waterhemp (waterhemp; Preemergence, 250 g ai/ha): 100 | Waterhemp plant response rating (waterhemp; [7]): 90 | Waterhemp plant response rating (waterhemp; [8]): 98 | Waterhemp plant response rating (waterhemp; [9]): 100 | Plant response rating (scale of 0 to 100), Velvetleaf (velvetleaf; Preemergence, 250 g ai/ha): 100 | Velvetleaf plant response rating (velvetleaf; [7]): 65 | Velvetleaf plant response rating (velvetleaf; [8]): 85 | Velvetleaf plant response rating (velvetleaf; [9]): 100 | Plant response rating (scale of 0 to 100 where 0 is no effect and 100 is complete control), Crabgrass, Large (crabgrass, large [3]; [10]): 5 | Crabgrass, Large plant response rating (crabgrass, large [3]; [11]): 10 | Plant response rating, Crabgrass, Large (crabgrass, large [3]; [12]): 60 | Plant response rating, Crabgrass, Large (crabgrass, large [3]; [13]): 15 | Plant response rating (scale of 0 to 100 where 0 is no effect and 100 is complete control), Barnyardgrass (barnyardgrass [4]; [10]): 5 | Barnyardgrass plant response rating (barnyardgrass [4]; [11]): 5 | Plant response rating, Barnyardgrass (barnyardgrass [4]; [12]): 40 | Plant response rating, Barnyardgrass (barnyardgrass [4]; [13]): 10 | Plant response rating (scale of 0 to 100 where 0 is no effect and 100 is complete control), Kochia (kochia; [10]): 55 | Kochia plant response rating (kochia; [11]): 50 | Plant response rating, Kochia (kochia; [12]): 65 | Plant response rating, Kochia (kochia; [13]): 65 | Plant response rating (scale of 0 to 100 where 0 is no effect and 100 is complete control), Chickweed (chickweed; [10]): 60 | Chickweed plant response rating (chickweed; [11]): 70 | Plant response rating, Chickweed (chickweed; [12]): 85 | Plant response rating, Chickweed (chickweed; [13]): 80
